Read-outs that look alike come from different tables or passages of the source.

Test [1] concerns the target mu opioid receptor (MOR) (Homo sapiens (Human), UniProt P35372). Put plainly: Competitive radioligand binding at MOR ([3H] Naloxone). As for the experimental part:
(§1) Receptor Binding at MOR and NMDA.
(§2) Affinities of various compounds were measured in vitro using competitive radioligand binding assays. Serial dilutions of test compounds were incubated with membranes prepared from CHO-K1 cells expressing the mu opioid receptor (MOR; for opioid receptor binding) or rat forebrain membranes (for NMDA receptor binding). 2 nM [^3H] Naloxone (MOR) or 0.2 nM [^3H] MK801 (NMDA) were used as the specific, competitive radioligands. 10 uM Naloxone (MOR), or 10 uM MK801 (NMDA) was used to determine non-specific binding. Bound radioactivity was measured using a scintillation counter & IC50 values for test compounds were determined by non-linear regression analysis using a one-site competition model (Graph Pad Prizm). Due to each test compound being solubilized in a buffered system for the assay, the results presented herein reflect the free base activity.

Test [2] has as its target NMDA receptor. Put plainly: Competitive radioligand binding at NMDA receptor ([3H] MK801), rat forebrain membranes. The note with it: 0.2 nM [3H] MK801, reflects free base activity. The protocol:
as §1, §2

[3] abbreviates: membranes from CHO-K1 cells expressing MOR, 2 nM [3H] Naloxone, reflects free base activity, read-out: MOR IC50.

In the case of `COCCOCCOCCO[C@H]1CC[C@H]2[C@H]3Cc4ccc(OC)cc4[C@@]2(CCN3C)C1` [Compound 1, (6α)-3-methoxy-6-{2-[2-(2-methoxyethoxy)ethoxy]ethoxy}-17-methylmorphinan], the IC50 in test [1] (setting [3]) was over 1000 nM; in test [2], over 10000 nM. In the case of `COCCOCCOCCNc1nc2cc3c(cc2s1)C[C@@H]1[C@@H]2CCCC[C@]32CCN1C` [Compound 71, (4aR,5R,11bR)—N-(2-(2-(2-methoxyethoxy)ethoxy)ethyl)-14-methyl-2,3,4,4a,5,6-hexahydro-1H-5,11b-(epiminoethano)phenanthro[3,2-d]thiazol-9-amine], the IC50 lay within 100 to 1000 nM in test [1] (setting [3]) and 1000 to 10000 nM in test [2]. For the compound `COCCOCCOc1cc(Nc2ccc3c(c2)[C@@]24CCCC[C@H]2[C@@H](C3)N(C)CC4)ccn1` [Compound 67, N-{2-[2-(2-methoxyethoxy)ethoxy]pyridin-4-yl}-17-methylmorphinan-3-amine], the half-maximal inhibitory concentration (IC50) in test [1] (setting [3]) was 100 to 1000 nM; in test [2], over 10000 nM. With `CN1CC[C@]23CCCC[C@H]2[C@H]1Cc1ccc(Nc2cccnn2)cc13` [Compound 61, 17-methyl-N-(pyridazin-3-yl)morphinan-3-amine], the half-maximal inhibitory concentration (IC50) in test [1] is 100 to 1000 nM; in test [2], 1000 to 10000 nM.

For `COCCOCCOCCOCCOCCOc1cncc(Nc2ccc3c(c2)[C@@]24CCCC[C@H]2[C@@H](C3)N(C)CC4)c1` [Compound 54, (4bR,8aR,9R)—N-(5-(2,5,8,11,14-pentaoxahexadecan-16-yloxy)pyridin-3-yl)-11-methyl-6,7,8,8a,9,10-hexahydro-5H-9,4b-(epiminoethano)phenanthren-3-amine], the IC50 in test [1] (setting [3]) was 10 to 100 nM; in test [2], over 10000 nM.

On to `CN1CC[C@]23CCCC[C@H]2[C@H]1Cc1cc2nnc(N)nc2cc13` [Compound 95, (4aR,5R,12bR)-15-methyl-2,3,4,4a,5,6-hexahydro-1H-5,12b-(epiminoethano)phenanthro[3,2-e][1,2,4]triazin-10-amine], for which the concentration for half-maximal inhibition (IC50) in test [1] (setting [3]) was over 1000 nM; in test [2] it was 1000 to 10000 nM.

As to `COCCOCCOCC(=O)Nc1nc2cc3c(cc2s1)C[C@@H]1[C@@H]2CCCC[C@]32CCN1C` [Compound 68, 2-[2-(2-methoxyethoxy)ethoxy]-N— [(4aR,5R,11bR)-14-methyl-2,3,4,4a,5,6-hexahydro-1H-5,11b-(epiminoethano)phenanthro[3,2-d][1,3]thiazol-9-yl]acetamide], the IC50 is over 1000 nM in test [1] (setting [3]) and 1000 to 10000 nM in test [2].

On to `COCCOCCOCCNC(=O)c1ccc2c(c1)[C@@]13CCCC[C@H]1[C@@H](C2)N(C)CC3` [Compound 41, N-{2-[2-(2-methoxyethoxy)ethoxy]ethyl}-17-methylmorphinan-3-carboxamide], for which the values for the IC50 in test [1] (setting [3]) and in test [2] were over 1000 nM and over 10000 nM, respectively. On to `COCCOCCOCCOCCOCCO[C@H]1CC[C@H]2[C@H]3Cc4ccc(OC)cc4[C@@]2(CCN3C)C1` [Compound 2, (6α)-3-methoxy-17-methyl-6-(2,5,8,11,14-pentaoxahexadecan-16-yloxy)morphinan], for which the results for the IC50 in test [1] (setting [3]) and in test [2] were over 1000 nM and over 10000 nM, respectively. For `COc1ccc(NC(=O)Nc2ccc3c(c2)[C@@]24CCCC[C@H]2[C@@H](C3)N(C)CC4)cc1` [Compound 27, 1-(4-methoxyphenyl)-3-(17-methylmorphinan-3-yl)urea], the IC50 in test [1] lay within 10 to 100 nM; in test [2], 1000 to 10000 nM.

`COCCOCCOc1cccc(Nc2ccc3c(c2)[C@@]24CCCC[C@H]2[C@@H](C3)N(C)CC4)c1` [Compound 34, N-{3-[2-(2-methoxyethoxy)ethoxy]phenyl}-17-methylmorphinan-3-amine]: the IC50 in test [1] (setting [3]) is 0.1 to 10 nM; in test [2] it was over 10000 nM.

Consider `CCNC(=O)N1CC[C@]23CCCC[C@H]2[C@H]1Cc1ccc(OC)cc13` [Compound 17, N-ethyl-3-methoxymorphinan-17-carboxamide], for which the IC50 is over 1000 nM in test [1] (setting [3]) and over 10000 nM in test [2]. With `CN1CC[C@]23CCCC[C@H]2[C@H]1Cc1ccc(NC(=O)OC(C)(C)C)cc13` [Compound 40, tert-butyl (17-methylmorphinan-3-yl)carbamate], the IC50 was 100 to 1000 nM in test [1] and 1000 to 10000 nM in test [2].

In the case of `COCCNc1ccc2c(c1)[C@@]13CCCC[C@H]1[C@@H](C2)N(C)CC3` [Compound 59, N-(2-methoxyethyl)-17-methylmorphinan-3-amine], the IC50 in test [1] was in the range of 100 to 1000 nM; in test [2], 1000 to 10000 nM.

Take `COCCOCCOCCOCCOCCCC(=O)Nc1nc2cc3c(cc2s1)C[C@@H]1[C@@H]2CCCC[C@]32CCN1C` [Compound 80, N-[(4aR,5R,11bR)-14-methyl-2,3,4,4a,5,6-hexahydro-1H-5,11b-(epiminoethano)phenanthro[3,2-d][1,3]thiazol-9-yl]-2,5,8,11,14-pentaoxaoctadecan-18-amide]: the IC50 in test [1] (setting [3]) was over 1000 nM; in test [2], 1000 to 10000 nM. Take `COc1cccc(C(=O)Nc2ccc3c(c2)[C@@]24CCCC[C@H]2[C@@H](C3)N(C)CC4)c1` [Compound 25, 3-methoxy-N-((4bR,8aR,9R)-11-methyl-6,7,8,8a,9,10-hexahydro-5H-9,4b-(epiminoethano)phenanthren-3-yl)benzamide]: the IC50 was over 1000 nM in test [1] (setting [3]) and over 10000 nM in test [2].

With `CN1CC[C@]23CCCC[C@H]2[C@H]1Cc1ccc(Nc2ccccn2)cc13` [Compound 63, 17-methyl-N-(pyridin-2-yl)morphinan-3-amine], the IC50 in test [1] and in test [2] was 100 to 1000 nM each time. For the compound `COCCOCCNC(=O)c1ccc2c(c1)[C@@]13CCCC[C@H]1[C@@H](C2)N(C)CC3` [Compound 39, N-[2-(2-methoxyethoxy)ethyl]-17-methylmorphinan-3-carboxamide], the IC50 in test [1] was 100 to 1000 nM; in test [2], over 10000 nM. `COCCOCCOCCOCCOCCOCCNc1nc2cc3c(cc2s1)C[C@@H]1[C@@H]2CCCC[C@]32CCN1C` [Compound 70, (4aR,5R,11bR)-14-methyl-N-(2,5,8,11,14,17-hexaoxanonadecan-19-yl)-2,3,4,4a,5,6-hexahydro-1H-5,11b-(epiminoethano)phenanthro[3,2-d][1,3]thiazol-9-amine] displayed a concentration for half-maximal inhibition (IC50) in test [2] of over 10000 nM. Take `CN1CC[C@]23CCCC[C@H]2[C@H]1Cc1ccc(-c2ccncc2)cc13` [Compound 45, 17-methyl-3-(pyridin-4-yl)morphinan]: the IC50 in test [1] (setting [3]) was over 1000 nM; in test [2] it was 1000 to 10000 nM. With `COCCOCCN1CC[C@]23CCCC[C@H]2[C@H]1Cc1ccc(N)cc13` [Compound 96, (4bR,8aR,9R)-11-(2-(2-methoxyethoxy)ethyl)-6,7,8,8a,9,10-hexahydro-5H-9,4b-(epiminoethano)phenanthren-3-amine], the figures for the IC50 in test [1] (setting [3]) and in test [2] were over 1000 nM and over 10000 nM, respectively. Take `COCCOCCN1CC[C@]23CCCC[C@H]2[C@H]1Cc1ccc(Nc2nccs2)cc13` [Compound 105, N-((4bR,8aR,9R)-11-(2-(2-methoxyethoxy)ethyl)-6,7,8,8a,9,10-hexahydro-5H-9,4b-(epiminoethano)phenanthren-3-yl)thiazol-2-amine]: the values for the IC50 in test [1] and in test [2] were 100 to 1000 nM and over 10000 nM, respectively. On the same counts, the results for `CN1CC[C@]23CCCC[C@H]2[C@H]1Cc1ccc(Nc2cnccn2)cc13` [Compound 55, 17-methyl-N-(pyrazin-2-yl)morphinan-3-amine] are 0.1 to 10 nM and over 10000 nM. On the same counts, the results for `COCCOCCN1CC[C@]23CCCC[C@H]2[C@H]1Cc1ccc(Nc2cncc(F)c2)cc13` [Compound 104, 17-[2-(2-methoxyethoxy)ethyl]-N-(5-fluoro-pyridin-3-yl)morphinan-3-amine] are 10 to 100 nM and over 10000 nM.

As for `COCCOCCOCCOCCOCCO[C@H]1CC[C@H]2[C@H]3Cc4ccc(O)cc4[C@@]2(CCN3C)C1` [Compound 10, (6α)-17-methyl-6-(2,5,8,11,14-pentaoxahexadecan-16-yloxy)morphinan-3-ol], the figures for the IC50 in test [1] (setting [3]) and in test [2] were 100 to 1000 nM and over 10000 nM, respectively. As for `COCCNC(=O)Nc1nc2cc3c(cc2s1)C[C@@H]1[C@@H]2CCCC[C@]32CCN1C` [Compound 72, 1-(2-methoxyethyl)-3-((4aR,5R,11bR)-14-methyl-2,3,4,4a,5,6-hexahydro-1H-5,11b-(epiminoethano)phenanthro[3,2-d]thiazol-9-yl)urea], the results for the IC50 in test [1] (setting [3]) and in test [2] were over 1000 nM and over 10000 nM, respectively. Regarding `CN1CC[C@]23CCCC[C@H]2[C@H]1Cc1cc2cccnc2cc13` [Compound 89, (4aR,5R,12bR)-15-methyl-2,3,4,4a,5,6-hexahydro-1H-5,12b-(epiminoethano)naphtho[2,1-g]quinoline], the results for the IC50 in test [1] (setting [3]) and in test [2] were 100 to 1000 nM and 1000 to 10000 nM, respectively. In the case of `COCCOCCOc1ccccc1Nc1ccc2c(c1)[C@@]13CCCC[C@H]1[C@@H](C2)N(C)CC3` [Compound 35, N-{2-[2-(2-methoxyethoxy)ethoxy]phenyl}-17-methylmorphinan-3-amine], the values for the half-maximal inhibitory concentration (IC50) in test [1] (setting [3]) and in test [2] were 100 to 1000 nM and over 10000 nM, respectively. On the same counts, the results for `COCCOc1cc(O)cc2c1C[C@@H]1[C@@H]3CCCC[C@]23CCN1C` [Compound 74, 1-(2-methoxyethoxy)-17-methylmorphinan-3-ol] are over 1000 nM and over 10000 nM.

Compound `COCCOc1c(OC)ccc2c1[C@@]13CCCC[C@H]1[C@@H](C2)N(C)CC3` [Compound 21, 3-methoxy-4-(2-methoxyethoxy)-17-methylmorphinan] registered an IC50 in test [1] of 100 to 1000 nM.

Source of the values: US10766864B2, “Morphinan derivatives for the treatment of neuropathic pain” (Nektar Therapeutics, priority 2015, dated 2020).
